Experimental data as given in patent publication US20160223562A1, “Method for Determining the Concentration of a Peptide” (JPT Peptide Technologies GmbH, priority 2010, published 2016).
Square brackets hold non-standard residues; d marks the D form. Peptide text beside a SMILES is read from it. Tyr(3-NO2) = N[C@@H](Cc1ccc(O)c([N+](=O)[O-])c1)C(=O)O

How the values were obtained:
[1] = target: T1, Trypsin (Sus scrofa, UniProt P00761); assay: Trypsin cleavage of C-terminal quantification tag -SA-nitroTyr-G from peptides, LC-MS with UV detection at 350 nm; assay type: biochemical; conditions: for Percent Cleavage of Tag [by UV at 350 nm]: after reduction and alkylation, trypsin enzyme/substrate 1:50 over night at RT
T1 construct: purchased Promega Corporation V511
Procedure: 23 peptides carrying the C-terminal quantification-tag-SA-nitroTyr-G-OH (SEQ ID NO:2) were synthesized by Fmoc-based solid phase peptide synthesis and purified by HPLC. Each peptide was subjected to the following trypsin cleavage protocol:
(§1) Trypsin Activation: Trypsin (20 μg, sequencing grade modified trypsin, Promega Corporation, Madison, Wis., USA, catalogue no. V511, specific activity 16.965 u/mg) was dissolved in Trypsin resuspension buffer (200 μL, Promega, catalogue no. V542A, ingredient 50 mM acetic acid) and incubated for 15 min at 37° C.
(§2) Reduction and alkylation: The peptide (approx. 0.05 mg) was dissolved in 1 M urea and 100 mM fresh ammonium hydrogen carbonate (300 μL). TCEP (Tris(2-carboxyethyl) phosphine hydrochloride, 0.2 M, 7.5 μL, final concentration 5 mM) was added and the solution incubated at 37° C. for 1 h. After addition of iodoacetamide (0.5 M, 6.0 μL, final concentration 10 mM) the solution was incubated at RT in the dark for another 30 min. Digestion: The sample was digested with activated Trypsin solution (10 μL per well, 1.0 μg, resulting enzyme/substrate ratio 1:50) over night at RT. To stop the digestion, HCl (2 M, 8 μL final concentration 50 mM) and TFA (3.2 μL, final concentration 1%, pH<2) were added. Finally, the sample was analyzed by LC-MS at 350 nm.

[2] = target: T1, Trypsin; assay: Trypsin cleavage of N-terminal quantification tag Ac-nitroTyr-SGK- from peptides, LC-MS with UV detection at 350 nm; assay type: biochemical; conditions: for cleavage efficiency in words: trypsin; for Kusebauch 24 h, RT: Percent Cleavage of Tag [by UV350 - Peptide-Tag vs. Tag]: trypsin protocol of example 9, 24 h
Procedure: as §1, §2
38 peptides carrying the N-terminal quantification-tag Ac-nitroTyr-SGK-(SEQ ID NO:32) were synthesized by SPOT synthesis (Table 3). The peptide sequences are based on two different amino acid sequences, which in each case contain 19 different amino acids N-terminally attached to lysine (the 20 naturally occurring amino acids except cysteine).
All peptides were subjected to the same trypsin cleavage protocol as described in example 9. It is apparent that the quantification tag is efficiently cleaved (>99%) in nearly all cases.

T1 sequence (P00761 9-231): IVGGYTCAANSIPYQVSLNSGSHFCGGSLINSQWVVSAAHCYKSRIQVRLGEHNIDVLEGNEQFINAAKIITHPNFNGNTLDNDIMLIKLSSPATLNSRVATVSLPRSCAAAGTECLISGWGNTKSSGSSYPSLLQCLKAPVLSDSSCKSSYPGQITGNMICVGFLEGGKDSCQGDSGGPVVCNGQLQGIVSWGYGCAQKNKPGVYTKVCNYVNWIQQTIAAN

| Percent Cleavage of Tag [by UV at 350 nm] [1] [%] | cleavage efficiency in words [2] | Kusebauch 24 h, RT: Percent Cleavage of Tag [by UV350 - Peptide-Tag vs. Tag] [2] [%] | cleavage efficiency (LC-MS and UV detection at 350 nm) ([1]; trypsin over night at RT) [%] | Compound |
| --- | --- | --- | --- | --- |
| 99.2 | good cleavage efficiencies | 100.0 | – | CC[C@H](C)[C@H](NC(=O)[C@H](Cc1ccccc1)NC(=O)[C@H](Cc1ccc(O)cc1)NC(=O)[C@H](Cc1c[nH]cn1)NC(=O)[C@@H](NC(=O)[C@H](CCCCN)NC(=O)[C@H](CCCCN)NC(=O)CNC(=O)[C@H](CO)NC(=O)[C@H](Cc1ccc(O)c([N+](=O)[O-])c1)NC(C)=O)[C@@H](C)O)C(=O)N[C@@H](CC(=O)O)C(=O)N[C@@H](CC(C)C)C(=O)N[C@@H](CC(N)=O)C(=O)N[C@@H](CCCCN)C(=O)O [Peptide 9, Ac-nitroTyr-SGKKTHYFIDLN-K-OH] (Ac-[Tyr(3-NO2)]SGKKTHYFIDLNK-OH) |
| 100 | – | 100.0 | – | CC[C@H](C)[C@H](NC(=O)[C@H](Cc1ccccc1)NC(=O)[C@H](Cc1ccc(O)cc1)NC(=O)[C@H](Cc1c[nH]cn1)NC(=O)[C@@H](NC(=O)[C@H](CC(C)C)NC(=O)[C@H](CCCCN)NC(=O)CNC(=O)[C@H](CO)NC(=O)[C@H](Cc1ccc(O)c([N+](=O)[O-])c1)NC(C)=O)[C@@H](C)O)C(=O)N[C@@H](CC(=O)O)C(=O)N[C@@H](CC(C)C)C(=O)N[C@@H](CC(N)=O)C(=O)N[C@@H](CCCCN)C(=O)O [Peptide 10, Ac-nitroTyr-SGKLTHYFIDLN-K-OH] (Ac-[Tyr(3-NO2)]SGKLTHYFIDLNK-OH) |
| 100 | – | 100.0 | – | CC[C@H](C)[C@H](NC(=O)[C@H](Cc1ccccc1)NC(=O)[C@H](Cc1ccc(O)cc1)NC(=O)[C@H](Cc1c[nH]cn1)NC(=O)[C@@H](NC(=O)[C@H](CCSC)NC(=O)[C@H](CCCCN)NC(=O)CNC(=O)[C@H](CO)NC(=O)[C@H](Cc1ccc(O)c([N+](=O)[O-])c1)NC(C)=O)[C@@H](C)O)C(=O)N[C@@H](CC(=O)O)C(=O)N[C@@H](CC(C)C)C(=O)N[C@@H](CC(N)=O)C(=O)N[C@@H](CCCCN)C(=O)O [Peptide 11, Ac-nitroTyr-SGKMTHYFIDLN-K-OH] (Ac-[Tyr(3-NO2)]SGKMTHYFIDLNK-OH) |
| 100 | – | 100.0 | – | CC[C@H](C)[C@H](NC(=O)[C@H](Cc1ccccc1)NC(=O)[C@H](Cc1ccc(O)cc1)NC(=O)[C@H](Cc1c[nH]cn1)NC(=O)[C@@H](NC(=O)[C@H](CC(N)=O)NC(=O)[C@H](CCCCN)NC(=O)CNC(=O)[C@H](CO)NC(=O)[C@H](Cc1ccc(O)c([N+](=O)[O-])c1)NC(C)=O)[C@@H](C)O)C(=O)N[C@@H](CC(=O)O)C(=O)N[C@@H](CC(C)C)C(=O)N[C@@H](CC(N)=O)C(=O)N[C@@H](CCCCN)C(=O)O [Peptide 12, Ac-nitroTyr-SGKNTHYFIDLN-K-OH] (Ac-[Tyr(3-NO2)]SGKNTHYFIDLNK-OH) |
| 99.4 | not efficiently cleaved | 37.0 | – | CC[C@H](C)[C@H](NC(=O)[C@H](Cc1ccccc1)NC(=O)[C@H](Cc1ccc(O)cc1)NC(=O)[C@H](Cc1c[nH]cn1)NC(=O)[C@@H](NC(=O)[C@@H]1CCCN1C(=O)[C@H](CCCCN)NC(=O)CNC(=O)[C@H](CO)NC(=O)[C@H](Cc1ccc(O)c([N+](=O)[O-])c1)NC(C)=O)[C@@H](C)O)C(=O)N[C@@H](CC(=O)O)C(=O)N[C@@H](CC(C)C)C(=O)N[C@@H](CC(N)=O)C(=O)N[C@@H](CCCCN)C(=O)O [Peptide 13, Ac-nitroTyr-SGKPTHYFIDLN-K-OH] (Ac-[Tyr(3-NO2)]SGKPTHYFIDLNK-OH) |
| 99.6 | – | 100.0 | – | CC[C@H](C)[C@H](NC(=O)[C@H](Cc1ccccc1)NC(=O)[C@H](Cc1ccc(O)cc1)NC(=O)[C@H](Cc1c[nH]cn1)NC(=O)[C@@H](NC(=O)[C@H](CCC(N)=O)NC(=O)[C@H](CCCCN)NC(=O)CNC(=O)[C@H](CO)NC(=O)[C@H](Cc1ccc(O)c([N+](=O)[O-])c1)NC(C)=O)[C@@H](C)O)C(=O)N[C@@H](CC(=O)O)C(=O)N[C@@H](CC(C)C)C(=O)N[C@@H](CC(N)=O)C(=O)N[C@@H](CCCCN)C(=O)O [Peptide 14, Ac-nitroTyr-SGKQTHYFIDLN-K-OH] (Ac-[Tyr(3-NO2)]SGKQTHYFIDLNK-OH) |
| 100 | good cleavage efficiencies | 100.0 | – | CC[C@H](C)[C@H](NC(=O)[C@H](Cc1ccccc1)NC(=O)[C@H](Cc1ccc(O)cc1)NC(=O)[C@H](Cc1c[nH]cn1)NC(=O)[C@@H](NC(=O)[C@H](CCCNC(=N)N)NC(=O)[C@H](CCCCN)NC(=O)CNC(=O)[C@H](CO)NC(=O)[C@H](Cc1ccc(O)c([N+](=O)[O-])c1)NC(C)=O)[C@@H](C)O)C(=O)N[C@@H](CC(=O)O)C(=O)N[C@@H](CC(C)C)C(=O)N[C@@H](CC(N)=O)C(=O)N[C@@H](CCCCN)C(=O)O [Peptide 15, Ac-nitroTyr-SGKRTHYFIDLN-K-OH] (Ac-[Tyr(3-NO2)]SGKRTHYFIDLNK-OH) |
| 100 | – | 100.0 | – | CC[C@H](C)[C@H](NC(=O)[C@H](Cc1ccccc1)NC(=O)[C@H](Cc1ccc(O)cc1)NC(=O)[C@H](Cc1c[nH]cn1)NC(=O)[C@@H](NC(=O)[C@H](CO)NC(=O)[C@H](CCCCN)NC(=O)CNC(=O)[C@H](CO)NC(=O)[C@H](Cc1ccc(O)c([N+](=O)[O-])c1)NC(C)=O)[C@@H](C)O)C(=O)N[C@@H](CC(=O)O)C(=O)N[C@@H](CC(C)C)C(=O)N[C@@H](CC(N)=O)C(=O)N[C@@H](CCCCN)C(=O)O [Peptide 16, Ac-nitroTyr-SGKSTHYFIDLN-K-OH] (Ac-[Tyr(3-NO2)]SGKSTHYFIDLNK-OH) |
| 100 | – | 100.0 | – | CC[C@H](C)[C@H](NC(=O)[C@H](Cc1ccccc1)NC(=O)[C@H](Cc1ccc(O)cc1)NC(=O)[C@H](Cc1c[nH]cn1)NC(=O)[C@@H](NC(=O)[C@@H](NC(=O)[C@H](CCCCN)NC(=O)CNC(=O)[C@H](CO)NC(=O)[C@H](Cc1ccc(O)c([N+](=O)[O-])c1)NC(C)=O)[C@@H](C)O)[C@@H](C)O)C(=O)N[C@@H](CC(=O)O)C(=O)N[C@@H](CC(C)C)C(=O)N[C@@H](CC(N)=O)C(=O)N[C@@H](CCCCN)C(=O)O [Peptide 17, Ac-nitroTyr-SGKTTHYFIDLN-K-OH] (Ac-[Tyr(3-NO2)]SGKTTHYFIDLNK-OH) |
| 100 | – | 100.0 | – | CC[C@H](C)[C@H](NC(=O)[C@H](Cc1ccccc1)NC(=O)[C@H](Cc1ccc(O)cc1)NC(=O)[C@H](Cc1c[nH]cn1)NC(=O)[C@@H](NC(=O)[C@@H](NC(=O)[C@H](CCCCN)NC(=O)CNC(=O)[C@H](CO)NC(=O)[C@H](Cc1ccc(O)c([N+](=O)[O-])c1)NC(C)=O)C(C)C)[C@@H](C)O)C(=O)N[C@@H](CC(=O)O)C(=O)N[C@@H](CC(C)C)C(=O)N[C@@H](CC(N)=O)C(=O)N[C@@H](CCCCN)C(=O)O [Peptide 18, Ac-nitroTyr-SGKVTHYFIDLN-K-OH] (Ac-[Tyr(3-NO2)]SGKVTHYFIDLNK-OH) |
| 100 | – | 100.0 | – | CC[C@H](C)[C@H](NC(=O)[C@H](Cc1ccccc1)NC(=O)[C@H](Cc1ccc(O)cc1)NC(=O)[C@H](Cc1c[nH]cn1)NC(=O)[C@@H](NC(=O)[C@H](Cc1c[nH]c2ccccc12)NC(=O)[C@H](CCCCN)NC(=O)CNC(=O)[C@H](CO)NC(=O)[C@H](Cc1ccc(O)c([N+](=O)[O-])c1)NC(C)=O)[C@@H](C)O)C(=O)N[C@@H](CC(=O)O)C(=O)N[C@@H](CC(C)C)C(=O)N[C@@H](CC(N)=O)C(=O)N[C@@H](CCCCN)C(=O)O [Peptide 19, Ac-nitroTyr-SGKWTHYFIDLN-K-OH] (Ac-[Tyr(3-NO2)]SGKWTHYFIDLNK-OH) |
| 74.7 | – | 100.0 | 75 | CC[C@H](C)[C@H](NC(=O)[C@H](Cc1ccccc1)NC(=O)[C@H](Cc1ccc(O)cc1)NC(=O)[C@H](Cc1c[nH]cn1)NC(=O)[C@@H](NC(=O)[C@H](Cc1ccc(O)cc1)NC(=O)[C@H](CCCCN)NC(=O)CNC(=O)[C@H](CO)NC(=O)[C@H](Cc1ccc(O)c([N+](=O)[O-])c1)NC(C)=O)[C@@H](C)O)C(=O)N[C@@H](CC(=O)O)C(=O)N[C@@H](CC(C)C)C(=O)N[C@@H](CC(N)=O)C(=O)N[C@@H](CCCCN)C(=O)O [Peptide 20, Ac-nitroTyr-SGKYTHYFIDLN-K-OH] (Ac-[Tyr(3-NO2)]SGKYTHYFIDLNK-OH) |
